Reference: patent US6284799A, “Cancer treatment” (priority 1996, dated 2001)
Like-named read-outs stand apart in the source and are kept apart here.

Key:
[1] = test system: C-3 fibrosarcoma cells; test: tumor promotion in mice injected with C-3 fibrosarcoma cells; assay type: in vivo, C3H mice; conditions: for tumor growth: C-3 fibrosarcoma, FIG. 7, FIG. 9; for animals with tumors by day 5: n=10 per group, no controls had tumors
Text: The experiments were blinded so that the individual measuring the first appearance of palpable tumor was unaware of the treatment group (saline control vs antidepressant drug; n=10 in each group),

[2] = test system: concanavalin A-stimulated normal lymphocytes; test: proliferation of concanavalin A-stimulated normal lymphocytes; assay type: cell-based
[3] = test system: HIC; test: inhibition of histamine binding to HIC in microsomes; parameters: species or system rat
[4] = test system: MCF-7 human breast cancer cells; conditions: MCF7, 168 h, read-out: IC50 value, inhibit/kill growth of MCF-7 cells
[5] = test system: HIC; test: competition for 3H-histamine binding to HIC in brain membranes; parameters: species or system rat; conditions: for Ki: rat cortical membranes
[6] = biological target: ^3 H-DPPE binding (HIC) in rat liver microsomes; test: competition for 3H-DPPE binding in liver microsomes
[7] = test system: phorbol myristate acetate (PMA)-induced platelet aggregation; test: PMA-induced platelet aggregation; assay type: cell-based; conditions: for IC50: Platelet, read-out: IC50, antagonism of PMA-induced platelet aggregation
[8] = test system: L5178Y lymphoma cells; test: tumor-promoting effect in DBA/2 mice inoculated subcutaneously with L5178Y lymphoma cells; assay type: in vivo
Text: A second group of 7 tumor cell-inoculated mice served as controls (saline injections, once daily×1). By day 14, 7/7 DPPE treated animals had palpable tumors as compared to 4/7 controls. At the end of 4 weeks, 6/7 controls had tumors with an aggregate surface area of 14.5 cm^2 (mean=2.1±0.8 cm^2 /animal), while 7/7 DPPE-treated animals had tumors with an aggregate surface area of 38.4 cm^2 (mean=5.5±0.7 cm^2 /animal). Thus, the tumor burden of DPPE-treatedanimals was approximately 2.5-fold greater than that of controls.

[9] = test system: PMA-induced inflammation in skin; test: PMA-induced skin inflammation in DBA/2 mice; assay type: in vivo
Procedure: To investigate any effect of DPPE to increase PMA-induced inflammation in the same strain of mice (DBA/2), groups of 3 animals were shaved over the back and 48 hours later received a single topical application of […] PMA in acetone. The PMA-treated mice then received either saline (control) or DPPE (4 or 32 mg/kg at time 0 and 24 hours). Three animals painted with acetone served as vehicle controls. Forty-eight hours later, the various groups were sacrificed by CO2 asphyxiation, the skin carefully excised, pinned to paper strips to prevent, wrinkling, and immersed in formaldehyde. H and E-stained sections of skin were assessed for degree of inflammation.
Indeed, since tumor promotion requires the presence of inflammatory response, and can be blocked by agents which inhibit inflammation by definition, DPPE functions as a co-promoter with PMA.

[10] = clinically relevant doses to enhance chemotherapy, about 0.2-12 mg/kg; cited from earlier work
[11] = test system: rat uterus; conditions: cited from earlier work
[12] = 1 mg/kg s.c. once daily x3, end of 4 weeks

## CC(C)NC[C@H](O)COc1cccc2ccccc12 (racemic) [propanolol]
[1]; C-3 fibrosarcoma murine model, FIG. 7
  tumor weight on Day 23: significantly increased tumor weight
[2]
  inhibition of lymphocyte proliferation / mitogenesis: inhibits normal lymphocyte mitogenesis

## COc1ccc(CCN2CCC(Nc3nc4ccccc4n3Cc3ccc(F)cc3)CC2)cc1 [Astemizole]
[3]
  inhibition of histamine binding to HIC: potent to inhibit histamine binding
[1]
  tumor growth: potently stimulate the growth
[2]
  inhibition of lymphocyte proliferation / mitogenesis: potent to inhibit

## CCN(CC)CCOc1ccc(C(=O)c2ccc(F)cc2)cc1 [DFPE, N,N=diethyl-2-[4-(4'-fluorophenone)phenoxy] ethanamine]
[4]
  IC50: 3 µM
[5]; brain membranes
  potency relative to DPPE in inhibiting histamine binding at HIC: approximately three times more potent
[5]; inhibiting normal cell proliferation and promoting malignant cell proliferation
  potency relative to DPPE in HIC binding competition assays: two to four times that of DPPE
[5]
  Ki: 0.3 µM
[6]; rat liver microsomes, read-out: KI value, competition for [^3 H] DPPE binding
  Ki: ~0.07 µM
[7]
  potency relative to DPPE in antagonizing PMA-induced platelet aggregation: approximately four times more potent
  IC50: 20 µM

## CCN(CC)CCOc1ccc(Cc2ccccc2)cc1 [DPPE, N,N-diethyl-2-[4-(phenylmethyl)-phenoxy] ethanamine]
[8]; 1 mg/kg (4 mg/M^2) s.c. once daily x3, day 14, n=7
  animals with palpable tumors by day 14: 7/7
[8]; 1 mg/kg s.c. once daily x3, 4 weeks, n=7
  animals with tumors at the end of 4 weeks: 7/7
[8]; [12]
  aggregate tumor surface area: 38.4 cm^2
  mean tumor surface area per animal: 5.5±0.7 cm^2 /animal
[8]; end of 4 weeks, versus saline controls
  tumor burden relative to controls: approximately 2.5 fold
[4]
  IC50: 6.5 µM
[9]; 32 mg/kg (128 mg/M^2)
  inflammatory response to PMA, high dose: most intense inflammatory response
[9]; 32 mg/kg, versus PMA and saline-treated groups
  mitotic activity in the epithelial layer: increased mitotic activity
[9]; 4 or 32 mg/kg at time 0 and 24 hours, skin assessed at 48 hours, versus saline or acetone controls
  inflammatory response to PMA: significantly greater inflammatory response
[5]
  Ki: 0.9 µM
[10]
  serious toxic effects in humans: does not cause serious toxic effects
[6]; ^3 H-DPPE binding in liver microsomes
  Kd: 0.065 µM
[2]
  inhibition of lymphocyte proliferation / mitogenesis: inhibit
[7]
  IC50: 80 µM
[11]
  antiestrogenic activity in vivo: antiestrogenic in vivo
  effect on tamoxifen action in the rat uterus in vivo: augment the effects of tamoxifen

## CN(C)CCC=C1c2ccccc2CCc2ccccc21 [amitriptyline]
[1]
  animals with tumors by day 5: 4/10
[6]; liver microsomes, FIG. 2, read-out: K1 to compete for ^3 H-DPPE binding
  Ki: 10 µM
[2]; Lymphocyte, in the absence of cytotoxicity, FIG. 5, read-out: IC50, inhibition of proliferation
  IC50: 10 to 20 µM

## CNCCC(Oc1ccc(C(F)(F)F)cc1)c1ccccc1 (stereo not shown) [fluoxetine]
[1]
  animals with tumors by day 5: 4/10

## CCOC(=O)N1CCC(=C2c3ccc(Cl)cc3CCc3cccnc32)CC1 [loratidine]
[1]
  tumor growth: potently promoted tumor growth
[2]
  inhibition of lymphocyte proliferation / mitogenesis: inhibited concanavalin A-stimulated mitogenesis
